Reference: article PMC4119572 (Clinical cancer research : an official journal of the …, 2014)

Experiments:
Type in all cases: cell-based
mouse Oct1 = biological target: T1, mouse Oct1 (Mus musculus, UniProt O08966); assay: TEA and ASP+ uptake inhibition in mOct1-transfected HEK293 cells
T1 sequence (O08966 1-556): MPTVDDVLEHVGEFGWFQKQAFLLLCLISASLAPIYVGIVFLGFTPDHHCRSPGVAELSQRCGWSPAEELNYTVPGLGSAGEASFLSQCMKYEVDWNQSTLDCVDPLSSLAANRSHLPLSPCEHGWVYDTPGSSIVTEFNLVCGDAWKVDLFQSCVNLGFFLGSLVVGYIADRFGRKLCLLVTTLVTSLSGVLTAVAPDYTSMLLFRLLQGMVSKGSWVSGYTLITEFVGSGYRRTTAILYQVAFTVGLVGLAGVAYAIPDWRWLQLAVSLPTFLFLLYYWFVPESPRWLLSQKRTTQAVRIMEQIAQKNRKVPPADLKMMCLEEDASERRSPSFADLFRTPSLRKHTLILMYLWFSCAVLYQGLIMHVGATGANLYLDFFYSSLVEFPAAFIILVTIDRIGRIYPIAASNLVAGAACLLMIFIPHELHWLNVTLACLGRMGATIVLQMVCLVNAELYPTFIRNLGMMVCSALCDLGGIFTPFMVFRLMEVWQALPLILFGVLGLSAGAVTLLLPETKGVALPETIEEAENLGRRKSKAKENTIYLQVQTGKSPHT

OCT2 [1] = biological target: T2, OCT2 (Homo sapiens, UniProt O15244); assay: […]TEA uptake inhibition in OCT2-transfected HEK293 cells, Dixon plot
T2 sequence (O15244 1-555): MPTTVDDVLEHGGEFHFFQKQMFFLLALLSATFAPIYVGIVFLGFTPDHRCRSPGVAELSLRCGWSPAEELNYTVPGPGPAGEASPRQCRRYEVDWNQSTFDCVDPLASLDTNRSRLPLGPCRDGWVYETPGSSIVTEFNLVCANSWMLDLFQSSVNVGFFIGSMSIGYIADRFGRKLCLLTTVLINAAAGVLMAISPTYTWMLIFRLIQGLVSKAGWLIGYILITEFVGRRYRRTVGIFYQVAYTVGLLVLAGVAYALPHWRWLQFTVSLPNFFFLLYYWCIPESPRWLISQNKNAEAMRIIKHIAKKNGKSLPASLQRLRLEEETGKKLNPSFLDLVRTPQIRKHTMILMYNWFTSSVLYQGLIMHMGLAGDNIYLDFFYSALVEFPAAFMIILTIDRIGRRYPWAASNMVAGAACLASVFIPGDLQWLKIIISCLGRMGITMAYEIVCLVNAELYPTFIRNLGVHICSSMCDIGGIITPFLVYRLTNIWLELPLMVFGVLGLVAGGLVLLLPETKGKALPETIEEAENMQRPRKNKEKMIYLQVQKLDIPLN

mouse Oct2 = biological target: T3, mouse Oct2 (Mus musculus, UniProt O70577); assay: TEA and ASP+ uptake inhibition in mOct2-transfected HEK293 cells
T3 sequence (O70577 1-553): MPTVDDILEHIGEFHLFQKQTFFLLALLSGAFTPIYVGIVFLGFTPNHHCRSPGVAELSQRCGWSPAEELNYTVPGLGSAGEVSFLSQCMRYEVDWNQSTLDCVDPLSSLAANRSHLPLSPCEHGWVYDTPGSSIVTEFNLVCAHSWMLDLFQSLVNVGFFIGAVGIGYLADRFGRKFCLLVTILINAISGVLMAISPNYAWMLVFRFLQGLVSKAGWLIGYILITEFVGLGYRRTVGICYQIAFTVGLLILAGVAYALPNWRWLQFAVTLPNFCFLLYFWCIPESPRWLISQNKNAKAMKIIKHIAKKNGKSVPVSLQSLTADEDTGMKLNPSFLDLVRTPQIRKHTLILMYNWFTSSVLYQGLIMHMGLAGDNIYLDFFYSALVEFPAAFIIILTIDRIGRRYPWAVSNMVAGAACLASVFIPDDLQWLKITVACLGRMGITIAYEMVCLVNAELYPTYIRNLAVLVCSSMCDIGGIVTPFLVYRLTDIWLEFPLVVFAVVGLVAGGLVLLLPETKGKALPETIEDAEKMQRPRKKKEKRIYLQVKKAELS

OCT2 [2] = biological target: T2, OCT2; assay: […]TEA uptake in OCT2-transfected HEK293 cells

Row | SMILES | TEA and ASP+ uptake inhibition in mOct1-transfected HEK293 cells (mouse Oct1) | Ki (OCT2 [1]) [µM] | TEA and ASP+ uptake inhibition in mOct2-transfected HEK293 cells (mouse Oct2) | [14C]TEA uptake in OCT2-transfected HEK293 cells (OCT2 [2])
1 | Cc1ccc(C(=O)Cn2c3c(sc2=N)CCCC3)cc1 [pifithrin-α] | pifithrin-α reduced uptake of TEA in Oct1 and Oct2 overexpressing HEK293 cells (Fig. 5A) | 3.04 | pifithrin-α reduced uptake of TEA in Oct1 and Oct2 overexpressing HEK293 cells (Fig. 5A) | –
2 | CC[N+](CC)(CC)CC [tetraethylammonium] | – | – | – | kinetic analyses were performed with and without pifithrin-α using varying concentrations of TEA as the OCT2 substrate
